Data set [1] deals with NbALFA. The data set is described as follows: SPR measurements of NbALFA binding (Biacore T200, multi cycle kinetics, 1:1 binding model). The following applies: 25° C., HBS-EP+ buffer, biotinylated NbALFA captured. Summed up:
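NbALFA captured via biotin on CAPture chip flow cell 2, streptavidin quenched with biocytin; multi-cycle kinetics at 25° C in HBS-EP+, surface regenerated between cycles. Responses double-referenced (FC2−FC1, minus 0 nM blank) and fitted to a 1:1 binding model.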
Background: In SPR one partner is held on a chip, and binding of the other changes the refractive index at the surface.

Data set [2] can be described thus: Plasma stability, human plasma. The following applies: human plasma, 37° C.
Description: (§1) Plasma stability measurements were performed by spiking 5 μl of a 1 mM compound stock solution in DMSO into 495 μl of human or mouse Li-heparin plasma (Innovative Research, Cat. No, IPLALIH5OML (human) and IMS-BC-N (Balb C mouse). The spiked plasma was distributed in 50 μl aliquots into capped PCR tubes for incubation at 37° C. At each time point (0, 2, 6, 24 hours*) 3*aliquots were withdrawn from the incubator. Enzymatic reactions were quenched directly after withdrawal by adding 100 μl of acetonitrile/formic acid=99/1 (v/v). Quenched samples were stored at ambient temperature until the end of the incubation period (24 hrs*). After centrifugation, the supernatant was transferred into fresh vials and analyzed by LC-MS/MS in ESI positive mode (Waters ACQUITY UPLC I-Class System (SM-FTN) with Xevo TQD triple quadrupole mass spectrometer with control software Waters MassLynx). […] Values below the limit of quantification (0.1 μM) and outliers of triplicate results were excluded from further calculations. An exponential regression curve was fitted onto the concentration results. Half-life times were calculated from the slope of the regression curve (t1/2=ln(2)/slope).
(§2) For some samples, as indicated below, the incubation time was 6 hours. The 24 hour data was measured in triplicates whereas the 6 hour data was measured in duplicates.
A short description of data set [3]: Plasma stability, mouse plasma. The note with it: for half-life: plasma.
Description: as §1, §2
Data set [4] has as its system anti-ALFA VHH. The data set is described as follows: binding affinity to the anti-ALFA VHH (log(agonist) vs. response, variable slope).
The test system of data set [5] is target expressing cells previously incubated with the NbALFA×anti-Target Adaptor-Protein. The data set is described as follows: FACS cell binding analysis of linear and cyclic ALFA-peptides (AlexaFluor680). The note with it: for binding to target expressing cells (AlexaFluor680 signal): 4 nM to 1024 nM peptide, 30 min at 4° C., after 100 nM NbALFA×anti-Target Adaptor-Protein; for binding on the controls: target-negative cells, pre-incubation with PBS or NbALFA×non-binder. Format: cell-based. How it is done: Cells were seeded in a 96-well microtiter plate (round button) to a final density of 2×10^5 and incubated in the presence of 100 nM NbALFA×anti-Target purified Adaptor-Protein (binds with one moiety to ALFA peptide and with the other moiety to cell presented target) or, as a negative control in the presence of 100 nM NbALFA×non-binder (binds with one moiety to the ALFA peptide and with the other moiety to a target which is not available in this experiment) or PBS for 30 min at 4° C. Cells were then washed and incubated with different concentrations (4 nM, 16 nM, 64 nM, 256 nM, and 1024 nM) of the linear [Ac(C-Alexa680)(PEG6)PSRLEEELRRRLTE-NH2] or cyclic [Ac(C-Alexa680)(PEG6)PSRLE(E)ELR(K)RLTE-NH2] ALFA peptide for another 30 min at 4° C. After rewashing, the cells were measured in FACS Canto II (BD Biosciences). AlexaFluor680 signal was used to detect the binding of ALFA peptides. Therefore, excitation Laser Line 633 nm was used to detect the AlexaFluor 680 signal.

For data set [6] the following is noted: mouse, plasma.
Description: as §1, §2
The conditions of data set [7]: mouse, in vivo, iv; for AUC(0-inf): AUC0-inf; for AUC(0-t): AUC0-t.
Description: (§3) C57BL/6NRj mice were obtained from Janvier Labs, France. In this study, approximately 8-week-old female mice were used.
(§4) Prior to administration into the lateral tail vein, the body weight of the animals was determined to calculate the individual volume of the injecting compound (5 mL/kg body weight). The injection, as well as the blood sampling, were carried out under short anesthesia (0.7 L/min O2, 1.7 L/min N2O, 2% Isoflurane). Blood was sampled from the retro-orbital plexus using microhematocrit capillary (Ø 0.8 mm) and collected into K3EDTA tubes, at the time points indicated in Table 10.
(§5) The plasma was separated by centrifugation (10,000×g; 10 min; 4° C.), aliquoted into microtubes and stored at −80° C.
(§6) 20 μl of each plasma sample was transferred into PCR tubes. 80 μl IS (internal standard)-solution in acetonitrile+1% FA was added for protein precipitation.
(§7) The sample tubes were sealed with pierceable cap mats and vortexed. After homogenization for 5 min in an ultrasonic bath the samples were centrifuged at 3000 rpm at ambient temperature for 15 min. 1 μl supernatant was injected into the instrument for LC-MS/MS analysis. For LC-MS/MS quantification a ExionLC™ UHPLC coupled to a QTRAP® 6500+ mass spectrometer (Sciex) was used in ESI positive mode. Parameters for mass spectrometry were listed in the tables below, Chromatographic separation was achieved on a ACQUITY UPLC BEH C18 column (Waters, 1.7 μm, 2.1×50 mm).
(§8) Compound concentrations in plasma samples were calculated using a 10-point calibration curve in plasma over a concentration range of 1 to 1000 ng/ml. QC samples of 1, 10, 100, 1000 ng/ml were analyzed before and after each dose group. Samples exceeding the upper limit of quantification (1000 ng/ml) were re-analyzed after 10-fold dilution in blank plasma. All calculations were performed in Sciex OS Version 1.7.0.36606 and MS-EXCEL®.
(§9) Pharmacokinetic parameters were calculated for both compounds using the software Kinetica (version 4.4.1, Thermo Scientific) applying a non-compartmental model (NCA).
Data set [8] is described as follows: in vivo. The note with it: female, C57BL/6NRj, mouse, iv, 10 mg/kg.
Description: as §3, §4, §5, §6, §7, §8, §9
The nature of data set [9]: in vitro. The following applies: human, plasma, Conc. (% of T0).
Description: as §1, §2
The nature of data set [10]: in vitro. The note with it: Balb C, mouse, plasma.
Description: as §1, §2
For data set [11] the following is noted: mouse, in vivo, iv.
Description: as §3, §4, §5, §6, §7, §8, §9
The conditions of data set [12]: human, plasma.
Description: as §1, §2
The mark [13] stands for this setting: Balb C, mouse, Li-heparin plasma.
Where [14] appears, read: mouse plasma, 37° C., timepoint 0 h.
Setting [15] is: mouse plasma, 37° C., timepoint 2 h.
Setting [16] is: mouse plasma, 37° C., timepoint 6 h.
The mark [17] stands for this setting: mouse plasma, 37° C., timepoint 24 h.

Read-outs that look alike come from different tables or passages of the source. Bridge positions count the residues as written; N and C are the ends. Primed or numbered codes have the meaning given here. Peptide text beside a SMILES is read from it. C(Alexa680) = cysteine labeled with Alexa680 (AlexaFluor680); PEG6′ = PEG6 spacer

Compound `CC(=O)N[C@@H](CO)C(=O)N[C@@H](CCCNC(=N)N)C(=O)N[C@@H](CC(C)C)C(=O)N[C@@H](CCC(=O)O)C(=O)N[C@H]1CC(=O)NCCCC[C@@H](C(=O)N[C@@H](CCCNC(=N)N)C(=O)N[C@@H](CC(C)C)C(=O)N[C@H](C(=O)N[C@@H](CCC(=O)O)C(N)=O)[C@@H](C)O)NC(=O)[C@H](CCCNC(=N)N)NC(=O)[C@H](CC(C)C)NC(=O)[C@H](CCC(=O)O)NC1=O` [SD15196, Ac-Ser-Arg-Leu-Glu-(cyclo5)Asp-Glu-Leu-Arg-(cyclo9)Lys-Arg-Leu-Thr-Glu-NH2] (Ac-SRLEDELRKRLTE-NH2; lactam 5-9) gave a dissociation constant (Kd) in data set [1] of 0.436 nM. In data set [1], this compound came in with a ka of 1.81e+07 M⁻¹ s⁻¹. For the same compound, in data set [1], the kd is 0.0079 s⁻¹. Besides, the “Conc. (% of T0)” value in data set [2] (timepoint 0 h) and in data set [3] (setting [14]) was 100.0 % of T0 each time. The “Mean (compound concentration)” value in data set [2] (timepoint 0 h) came to 2.42; in [2] (timepoint 2 h), 2.21; in data set [2] (timepoint 6 h), 1.73; in [2] (timepoint 24 h) it was 0.77; in data set [3] (setting [14]), 2.42; in data set [3] (setting [15]), 2.28. Also, the “Mean (compound concentration)” value in [3] (setting [16]) was found to be 1.95; in data set [3] (setting [17]), 1.27. In addition, the “Tube 2 (compound concentration)” value in data set [2] (timepoint 0 h) is given as 2.424; in [2] (timepoint 2 h) it was 2.234; in data set [2] (timepoint 6 h), 1.803; in data set [2] (timepoint 24 h), 0.761; in [3] (setting [14]), 2.424; in data set [3] (setting [15]) it was 2.329. The “Tube 2 (compound concentration)” value came out at 2.008 in [3] (setting [16]) and 1.273 in data set [3] (setting [17]). Further, the “Tube 3 (compound concentration)” value amounted to 2.518 in data set [2] (timepoint 0 h); 2.212 in data set [2] (timepoint 2 h); 1.545 in data set [2] (timepoint 6 h); 0.694 in [2] (timepoint 24 h); 2.497 in data set [3] (setting [14]); 2.237 in data set [3] (setting [15]). Besides, the “Tube 3 (compound concentration)” value in data set [3] (setting [16]) turned out to be 1.874; in data set [3] (setting [17]) it was 1.201. In addition, the “Tube 1 (compound concentration)” value in data set [2] (timepoint 0 h, calibration range 0.1 to 10 μM) was found to be 2.314; in data set [2] (timepoint 2 h), 2.188; in data set [2] (timepoint 6 h), 1.843; in [2] (timepoint 24 h), 0.844; in [3] (mouse plasma, 37° C., timepoint 0 h, calibration range 0.1 to 10 μM), 2.336; in data set [3] (setting [15]), 2.277. Further, the results for the “Tube 1 (compound concentration)” value in [3] (setting [16]) and in data set [3] (setting [17]) were 1.96 and 1.334, respectively. Also, the fraction remaining at 24 h, 10 µM was determined as 31.7% in data set [2] (human, Li-heparin plasma, Conc. (% of T0), timepoint 24 h) and 52.5% in data set [3] (setting [13]). The fraction remaining at 2 h, 10 µM worked out at 91.4% in data set [2] (human, human Li-heparin plasma, Conc. (% of T0), timepoint 2 h) and 94.3% in data set [3] (setting [13]). For the same compound, the share remaining at 6 h, 10 µM in data set [2] (human, human Li-heparin plasma, Conc. (% of T0), timepoint 6 h) is 71.5%; in [3] (setting [13]), 80.5%. Further, the half-life in [2] (human, plasma, Half-life time, incubation 24 h (triplicates) or 6 h (duplicates)) is 871 min; in [3] (mouse, Flag (half-life, assay exceeded), mouse plasma, 37° C.), above 1440 min; in [3] (mouse, Half-life time, mouse plasma, 37° C., incubation 24 h (triplicates) or 6 h (duplicates)) it was 1570 min. In addition, the LogEC50 in [4] (best-fit values, log(agonist) vs. response, variable slope) stood at 2.576. Besides, the 50% effective concentration (EC50) in data set [4] (binding to anti-ALFA VHH) was found to be 377 nM.

Take “Ac(C-Alexa680)(PEG6)PSRLE(E)ELR(K)RLTE-NH2 [cyclic ALFA peptide]”: in [5], the “binding to target expressing cells (AlexaFluor680 signal)” value is “bind only to target expressing cells previously incubated with the NbALFA×anti-Target Adaptor-Protein” and the “binding on the controls” value was “No binding”.

Regarding “Ac(C-Alexa680)(PEG6)PSRLEEELRRRLTE-NH2 ({Ac-C(Alexa680)-PEG6′}-PSRLEEELRRRLTE-NH2) [linear ALFA peptide, linear ALFA-peptide conjugated to AlexaFluor680, reference compound]”, in data set [5], the “binding to target expressing cells (AlexaFluor680 signal)” value was “bind only to target expressing cells previously incubated with the NbALFA×anti-Target Adaptor-Protein” and the “binding on the controls” value was “No binding”.

As for “Ac-PSRLEEELRRRLTE-NH2 [SD14316, Ac-Pro-Ser-Arg-Leu-Glu-Glu-Glu-Leu-Arg-Arg-Arg-Leu-Thr-Glu-NH2]”, in [6], the half-life is 228 min. Besides, in data set [7] (3 mg/kg), the MRT inf is 4 min, the MRT last is 3.7 min, the Tmax is 5 min and the clearance is 962 mL/min/kg. In data set [7] (3 mg/kg), this compound registered an AUC(0-inf) of around 52 ng·h/mL, an exposure AUC(0-t) of 51 ng·h/mL, a C0 of around 656 ng/mL and a Cmax of 306 ng/mL. In addition, the Vd in data set [7] (3 mg/kg, Vss) came out at 3.89 L/kg. For the same compound, the distribution volume (Vd) in data set [7] (3 mg/kg, Vz) was around 6.3 L/kg. In data set [7] (10 mg/kg), the MRT inf is 4.1 min, the MRT last was 4 min, the time to peak (Tmax) is 5 min and the clearance is 724 mL/min/kg. Besides, in [7] (10 mg/kg), the total exposure AUC(0-inf) came to 230 ng·h/mL, the area under the curve AUC(0-t) is 230 ng·h/mL, the C0 was around 2400 ng/mL and the Cmax was 1660 ng/mL. For the same compound, the Vd in [7] (10 mg/kg, Vss) was 2.95 L/kg. Moreover, in [7] (10 mg/kg, Vz), the Vd came to 4.48 L/kg. Further, the half-life in data set [8] is 4.3 min. Further, in data set [9], the amount remaining at 1 h, 10 µM worked out at 89%; the fraction remaining at 3 h, 10 µM turned out to be 78.9%; the share remaining at 6 h, 10 µM came to 66.9%. Further, in [10], the share remaining at 2 h, 10 µM stood at 72.7% and the amount remaining at 6 h, 10 µM came out at 33.8%. In [11] (3 mg/kg), the AUCextra was ~1.5^(1) %, the Vc was ~4574^(1) mL/kg, the t1/2effective is listed as ~2.6^(1) min and the t1/2initial is reported as ~1.6^(1) min. Moreover, in data set [11] (3 mg/kg), the t1/2terminal is ~4.5^(1) min, the λinitial is recorded as 0.45^(2) min^−1 and the λterminal is listed as 0.15^(2) min^−1. For the same compound, in data set [11] (10 mg/kg), the AUCextra stood at 0.2%, the Vc is listed as ~4175^(1) mL/kg, the t1/2effective is 2.8 min and the t1/2initial is reported as ~1.3^(1) min. In data set [11] (10 mg/kg), the λinitial is reported as 0.52^(2) min^−1 and the λterminal amounted to 0.16 min⁻¹. Besides, the half-life in data set [12] (Flag (half-life, assay exceeded)) is above 360 min. In data set [12] (Half-life time), the half-life was 646 min.

Broadly, the Kd is the constant that tells how readily two partners part at equilibrium. Low readings indicate higher affinity, high ones lower affinity. Broadly, the share remaining is what is left of the initial amount, in per cent. As usually defined, the half-life is the time needed for the level to fall by half in the phase considered. Low readings indicate rapid decline, high ones slow decline. The term EC50 denotes the concentration at which the effect is half-maximal. Higher therefore signals weaker potency. In general, MRT inf refers to the average time that molecules of a dose stay in the body. As a reminder, the MRT last is a mean duration of stay, worked out from the concentration-time curve. As a reminder, the Tmax is the time from dosing to the highest level. The clearance is the rate of elimination divided by the concentration. A high value points to efficient removal. One may read the AUC(0-inf) as the area under the concentration-time curve extrapolated to infinity. Higher therefore signals more exposure. Usually AUC(0-t) stands for exposure summed from dosing to a finite time, without extrapolation to infinity. A lower AUC(0-t) goes with less exposure. One may read the Cmax as the peak of the concentration-time curve. What is called Vd is the apparent volume that relates the amount in the body to the concentration in plasma or blood. A high value points to wide distribution into tissue.

The values are drawn from US20250154202A1, “CYCLIC EPITOPE TAGS” (BIONTECH SE, priority 2022, published 2025).
